{
  "source": "paper PMC7277860",
  "about": "“Viridistratins A−C, Antimicrobial and Cytotoxic Benzo[j]fluoranthenes from Stromata of Annulohypoxylon viridistratum (Hypoxylaceae, Ascomycota)” (Biomolecules, 2020)",
  "experiment_in_all_cases": "MIC serial dilution assay",
  "type_in_all_cases": "cell-based",
  "key": {"Escherichia coli": {"test_system": "Escherichia coli", "conditions": "Escherichia coli DSM1116; overnight, 37 °C; reference oxytetracycline 0.1 mg/mL; read-out: Minimum Inhibitory Concentration (MIC)", "experimental": "(§1) Compounds 1, 2, 4 and 5 were dissolved in MeOH (1 mg/mL) for the antimicrobial activity assay, while compound 3 was dissolved in MeOH: DMSO 9+1 (1 mg/mL). The solvents were also used as negative controls.\n(§2) Minimum inhibitory concentrations (MIC) were determined in a serial dilution assay, as described previously; a detailed protocol can be found in the Supporting Information. The compounds (1 mg/mL) were diluted to a range of 66.7 to 0.52 µg/mL and incubated with the test organisms overnight. Inhibition of growth was visually evaluated the next day: the MIC is defined as the lowest concentration of the test compound where no growth of the test organism was observed. Various test organisms of fungal and bacterial origin were tested to cover a broad range of microorganisms. This selection is also being used as a standard test panel in our attempts to discover new anti-infectives, as it represents a broad spectrum of pathogens of clinical interest, as well as sensitive indicator strains (bacteria: Bacillus subtilis, Staphylococcus aureus, Micrococcus luteus, Chromobacterium violaceum, Escherichia coli and Pseudomonas aeruginosa; mycobacteria: Mycolicibacterium smegmatis and fungi: Candida albicans, Schizosaccharomyces pombe, Mucor hiemalis, Pichia anomala and Rhodotorula glutinis).\n(§3) Protocol: Antimicrobial Activi ty Assay\n(§4) The assay was conducted as a minimum inhi bitory concentration (MIC) assay in 96-well ro und-bottom mi crotiter pl ate s usi ng the p ar ameter s su mm ari zed i n T a bl e S 1 and as already described i n [S1].\n(§5) Stocks of the test organi sms were generated by growing the organisms o ver ni ght i n 50 mL shaki ng fl asks fi ll ed wi th 25 mL of the growth medi um at 140 rpm (for media and temperatures see Table S1). If the organisms were well grown the ne xt day, which was checked by occurrence of an optical density (OD)>30 of the suspension (OD600 nm for bacteria, OD548 nm for fungi and M. smegma tis) , aliquots of these were stored i n 1.5 mL reaction tube s in a freezer at −80 °C for up to 12 mo nths . Upon use, aliquots were unth awed and the OD of the suspension measured and adjusted by diluting with the respective growth medi um. OD600 nm w as adj usted to 0.01 and OD548 nm to 0.1.\n(§6) Subse que ntly, 150 µL o f the adjusted suspensions were added to all wells of a 96-wel l microtiter pl ate (one test organi sm per plate). In row A, additional 130 µL of suspensions plus 20 µL of the test compounds (1 mg/mL) and the controls (one compound/column) were added. MeOH as well as MeOH:DMSO 9+1 were used as negative controls, while different positive controls (refer ences) were used for the test organisms (see Tabl e S1). Then, starti ng from row A, 150 µ L of the suspension were transferred to the next row, the contents thoroughly mixed, and 150 µ L transferred to the following row.\n(§7) The remaining 150 µ L after row H were discarded. […]\n(§8) compounds, ranging from 66.7 µg/mL i n row A to 0.52 µg/mL i n row H.\n(§9) The microtiter plates were then incubated overnight o n a microplate shaker at 800 rpm at 30 or 37 °C (see Table S1) and were visually evaluated the next day. The MIC is defined as the lowest concentration were no growth of the test organism was o bserved. A lower MIC thus corresponds to a higher antimicrobial activity of the test compound.\n(§10) Table S1: MIC assay ex per i men t parameters test organism strain No. growth incubation positive control (reference) […]\nEscherichia coli DSM1116 MHB 1 37 oxytetr acyclin 0.1 mg/mL […]\n(§11) Rhodotorula glutinis DSM10134 MYC 3 30 nyst ati n 1.0 mg/mL\n(§12) 1 MHB: Müller-Hinton Broth (SN X927.1, Ca r l Roth GmbH, Karlsruhe, Germany) 2 7H9+ADC: Middlebrook 7H9 Broth Base + Middlebrook ADC Growth Supplement (SN M0678+M0553, Merck, Darmstadt, Germany)\n(§13) 3 MYC: 1 % w/v, bacto peptone, 1% w/v yeast extract, 2 % w /v glycerol, pH 6.3 [S1] Helaly, S.E.; Ashrafi, S.; Teponno, R.B.; Bernecker, S.; Dababat, A.A.; Maier, W.; Stadler, M.\n(§14) Nematicidal Cyclic Lipodepsipeptides and a Xanthocillin Derivative from a Phaeosphariaceous […]"}, "[1]": {"test_system": "Mycolicibacterium smegmatis", "conditions": "Mycolicibacterium smegmatis ATCC700084; overnight, 37 °C; reference kanamycin 0.1 mg/mL; read-out: Minimum Inhibitory Concentration (MIC)", "experimental": "as §1, §2, §3, §4, §5, §6, §7, §8, §9, §10, §11, §12, §13, §14"}, "Rhodotorula glutinis": {"test_system": "Rhodotorula glutinis", "conditions": "Rhodotorula glutinis, DSM10134, Rhodotorula glutinis DSM10134; overnight, 30 °C; reference nystatin 1 mg/mL; read-out: Minimum Inhibitory Concentration (MIC)", "experimental": "as §1, §2, §3, §4, §5, §6, §7, §8, §9, §10, §11, §12, §13, §14"}, "[2]": {"test_system": "Schizosaccharomyces pombe", "conditions": "Schizosaccharomyces pombe DSM70572; overnight, 30 °C; reference nystatin 1 mg/mL; read-out: Minimum Inhibitory Concentration (MIC)", "experimental": "as §1, §2, §3, §4, §5, §6, §7, §8, §9, §10\nSchizosaccharomyces DSM70572 MYC 3 30 nyst ati n 1.0 mg/mL […]\nas §11, §12, §13, §14"}},
  "data": [
    {"smiles": "COc1cccc2c3c(ccc12)-c1ccc(O)c2c(OC)ccc-3c12", "note": "[Compound 3, viridistratin C]", "values": [
      {"measurement": "MIC", "setting": "Escherichia coli", "value": "> 66.7", "unit": "µg/mL"},
      {"measurement": "MIC", "setting": "[1]", "value": "> 66.7", "unit": "µg/mL"},
      {"measurement": "MIC", "setting": "Rhodotorula glutinis", "value": "> 66.7", "unit": "µg/mL"},
      {"measurement": "MIC", "setting": "[2]", "value": "> 66.7", "unit": "µg/mL"}
    ]},
    {"smiles": "COc1cccc2c3c(ccc12)-c1ccc(O)c2c(O)ccc-3c12", "note": "[Compound 2, viridistratin B]", "values": [
      {"measurement": "MIC", "setting": "Escherichia coli", "value": "> 66.7", "unit": "µg/mL"},
      {"measurement": "MIC", "setting": "[1]", "value": 33.3, "unit": "µg/mL"},
      {"measurement": "MIC", "setting": "Rhodotorula glutinis", "value": 33.3, "unit": "µg/mL"},
      {"measurement": "MIC", "setting": "[2]", "value": 33.3, "unit": "µg/mL"}
    ]},
    {"smiles": "Oc1cccc2c3c(ccc12)-c1ccc(O)c2c(O)ccc-3c12", "note": "[Compound 1, viridistratin A]", "values": [
      {"measurement": "MIC", "setting": "Escherichia coli", "value": "> 66.7", "unit": "µg/mL"},
      {"measurement": "MIC", "setting": "[1]", "value": "> 66.7", "unit": "µg/mL"},
      {"measurement": "MIC", "setting": "Rhodotorula glutinis", "value": 33.3, "unit": "µg/mL"},
      {"measurement": "MIC", "setting": "[2]", "value": 66.7, "unit": "µg/mL"}
    ]},
    {"smiles": "O=C1CCC(=O)c2c1c(O)cc1c2-c2ccc(O)c3c(O)ccc-1c23", "note": "[Compound 5, truncatone C]", "values": [
      {"measurement": "MIC", "setting": "Escherichia coli", "value": "> 66.7", "unit": "µg/mL"},
      {"measurement": "MIC", "setting": "[1]", "value": "> 66.7", "unit": "µg/mL"},
      {"measurement": "MIC", "setting": "[2]", "value": "> 66.7", "unit": "µg/mL"}
    ]},
    {"smiles": "O=C1C[C@H]2C(=C3CCC(=O)c4c(O)ccc2c43)c2cccc(O)c21", "note": "[Compound 4, truncatone A]", "values": [
      {"measurement": "MIC", "setting": "Escherichia coli", "value": "> 66.7", "unit": "µg/mL"},
      {"measurement": "MIC", "setting": "[1]", "value": "> 66.7", "unit": "µg/mL"},
      {"measurement": "MIC", "setting": "Rhodotorula glutinis", "value": "> 66.7", "unit": "µg/mL"},
      {"measurement": "MIC", "setting": "[2]", "value": "> 66.7", "unit": "µg/mL"}
    ]}
  ]
}
